Measured values: ChEMBL document CHEMBL1201862, “PubChem BioAssay data set” (2004)
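Dose response: 5 concentrations. Exposure: 48 h. Format: 96-well plates. Endpoint: linear interpolation; highest concentration if not reached. Here, GI50 denotes the concentration required for 50% inhibition of growth.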 Active and inactive are the calls of the source. No stated cut-off is given here; in the data, active = GI50 up to about 1.1 µM and inactive = higher.

Key:
Test in all cases: inhibition of tumour cell growth, NCI panel, 48 h
SN12C = system: SN12C
EKVX = system: EKVX
HOP-92 = system: HOP-92
SR = system: SR
SW-620 = system: SW-620
TK-10 = system: TK-10
SF-268 = system: SF-268
HL-60 = system: HL-60
DU-145 = system: DU-145
HOP-62 = system: HOP-62
SK-MEL-28 = system: SK-MEL-28
K562 = system: K562
HCT-15 = system: HCT-15
MDA-MB-435 = system: MDA-MB-435
U-251 = system: U-251
NCI-H460 = system: NCI-H460
OVCAR-5 = system: OVCAR-5
M14 = system: M14
OVCAR-4 = system: OVCAR-4
HCT-116 = system: HCT-116
MDA-N = system: MDA-N
RXF 393 = system: RXF 393
CCRF-CEM = system: CCRF-CEM
PC-3 = system: PC-3
COLO 205 = system: COLO 205
MDA-MB-231 = system: MDA-MB-231
UACC-257 = system: UACC-257
MOLT-4 = system: MOLT-4
HCC 2998 = system: HCC 2998
SNB-19 = system: SNB-19
UACC-62 = system: UACC-62
T47D = system: T47D
A549 = system: A549
NCI/ADR-RES = system: NCI/ADR-RES
BT-549 = system: BT-549
NCI-H23 = system: NCI-H23
OVCAR-3 = system: OVCAR-3
KM12 = system: KM12
Malme-3M = system: Malme-3M
NCI-H226 = system: NCI-H226
MCF7 = system: MCF7
SK-MEL-5 = system: SK-MEL-5
SF-295 = system: SF-295
RPMI-8226 = system: RPMI-8226
IGROV-1 = system: IGROV-1
OVCAR-8 = system: OVCAR-8
SF-539 = system: SF-539
NCI-H522 = system: NCI-H522
ACHN = system: ACHN
HT-29 = system: HT-29
786-0 = system: 786-0
LOX IMVI = system: LOX IMVI
A498 = system: A498
UO-31 = system: UO-31
SK-MEL-2 = system: SK-MEL-2
SNB-75 = system: SNB-75
CAKI-1 = system: CAKI-1
SK-OV-3 = system: SK-OV-3

For `CC(=O)/C=C/CCC(=O)/C=C/C(=O)OC(CCC(=O)/C=C/C(=O)O)CC(C)=O` (stereo not given), the GI50 (SN12C) was > 100 µM (inactive), the GI50 (EKVX) was > 100 µM (inactive) and the GI50 (HOP-92) was > 100 µM (inactive). For the same molecule, the GI50 (SR) was 88.9 µM (inactive), the GI50 (SW-620) was > 100 µM (inactive) and the GI50 (TK-10) was > 100 µM (inactive). For the same molecule, the GI50 (SF-268) was > 100 µM (inactive), the GI50 (HL-60) was 32.8 µM (inactive) and the GI50 (DU-145) was > 100 µM (inactive). For the same molecule, the GI50 (HOP-62) was > 100 µM (inactive), the GI50 (SK-MEL-28) was > 100 µM (inactive) and the GI50 (K562) was > 100 µM (inactive). The GI50 (HCT-15) was 92.5 µM, the GI50 (MDA-MB-435) was > 100 µM (inactive) and the GI50 (U-251) was > 100 µM (inactive). For the same molecule, the GI50 (NCI-H460) was > 100 µM (inactive), the GI50 (OVCAR-5) was > 100 µM (inactive) and the GI50 (M14) was > 100 µM (inactive). For the same molecule, the GI50 (OVCAR-4) was > 100 µM (inactive), the GI50 (HCT-116) was > 100 µM (inactive) and the GI50 (MDA-N) was > 100 µM (inactive). For the same molecule, the GI50 (RXF 393) was > 100 µM (inactive), the GI50 (CCRF-CEM) was 43.8 µM (inactive) and the GI50 (PC-3) was > 100 µM (inactive). The GI50 (COLO 205) was > 100 µM (inactive), the GI50 (MDA-MB-231) was > 100 µM (inactive) and the GI50 (UACC-257) was > 100 µM (inactive). The GI50 (MOLT-4) was > 100 µM (inactive), the GI50 (HCC 2998) was > 100 µM (inactive) and the GI50 (SNB-19) was > 100 µM (inactive). The GI50 (UACC-62) was 1.19 µM (inactive), the GI50 (T47D) was > 100 µM (inactive) and the GI50 (A549) was > 100 µM (inactive). For the same molecule, the GI50 (NCI/ADR-RES) was > 100 µM (inactive), the GI50 (BT-549) was > 100 µM (inactive) and the GI50 (NCI-H23) was > 100 µM (inactive). The GI50 (OVCAR-3) was > 100 µM (inactive), the GI50 (KM12) was > 100 µM (inactive) and the GI50 (Malme-3M) was > 100 µM (inactive). The GI50 (NCI-H226) was 42.6 µM (inactive), the GI50 (MCF7) was 93.1 µM (inactive) and the GI50 (SK-MEL-5) was > 100 µM (inactive). For the same molecule, the GI50 (SF-295) was > 100 µM (inactive), the GI50 (RPMI-8226) was 54.7 µM (inactive) and the GI50 (IGROV-1) was > 100 µM (inactive). For the same molecule, the GI50 (OVCAR-8) was > 100 µM (inactive), the GI50 (SF-539) was > 100 µM (inactive) and the GI50 (NCI-H522) was 96.4 µM (inactive). The GI50 (ACHN) was > 100 µM (inactive), the GI50 (HT-29) was > 100 µM (inactive) and the GI50 (786-0) was > 100 µM (inactive).
With `COC(=O)c1cc2ccc(N)nc2[nH]c1=O` the GI50 (LOX IMVI) was > 100 µM (inactive), the GI50 (SN12C) was > 100 µM (inactive) and the GI50 (EKVX) was > 100 µM (inactive). The GI50 (HOP-92) was > 100 µM (inactive), the GI50 (A498) was > 100 µM (inactive) and the GI50 (SW-620) was > 100 µM (inactive). The GI50 (UO-31) was > 100 µM (inactive), the GI50 (TK-10) was > 100 µM (inactive) and the GI50 (SF-268) was > 100 µM (inactive). The GI50 (HOP-62) was > 100 µM (inactive), the GI50 (SK-MEL-28) was > 100 µM (inactive) and the GI50 (HCT-15) was over 100 µM. The GI50 (MDA-MB-435) was > 100 µM (inactive), the GI50 (U-251) was > 100 µM (inactive) and the GI50 (NCI-H460) was > 100 µM (inactive). The GI50 (SK-MEL-2) was > 100 µM (inactive), the GI50 (OVCAR-5) was > 100 µM (inactive) and the GI50 (M14) was > 100 µM (inactive). The GI50 (OVCAR-4) was > 100 µM (inactive), the GI50 (HCT-116) was > 100 µM (inactive) and the GI50 (MDA-N) was > 100 µM (inactive). For the same molecule, the GI50 (RXF 393) was > 100 µM (inactive), the GI50 (PC-3) was > 100 µM (inactive) and the GI50 (COLO 205) was > 100 µM (inactive). The GI50 (MDA-MB-231) was > 100 µM (inactive), the GI50 (UACC-257) was > 100 µM (inactive) and the GI50 (HCC 2998) was > 100 µM (inactive). The GI50 (SNB-75) was > 100 µM (inactive), the GI50 (SNB-19) was > 100 µM (inactive) and the GI50 (T47D) was > 100 µM (inactive). For the same molecule, the GI50 (A549) was > 100 µM (inactive), the GI50 (NCI/ADR-RES) was > 100 µM (inactive) and the GI50 (BT-549) was > 100 µM (inactive). The GI50 (CAKI-1) was > 100 µM (inactive), the GI50 (NCI-H23) was > 100 µM (inactive) and the GI50 (OVCAR-3) was > 100 µM (inactive). For the same molecule, the GI50 (KM12) was > 100 µM (inactive), the GI50 (Malme-3M) was > 100 µM (inactive) and the GI50 (NCI-H226) was > 100 µM (inactive). For the same molecule, the GI50 (MCF7) was > 100 µM (inactive), the GI50 (SK-MEL-5) was > 100 µM (inactive) and the GI50 (SF-295) was > 100 µM (inactive). For the same molecule, the GI50 (RPMI-8226) was > 100 µM (inactive), the GI50 (IGROV-1) was > 100 µM (inactive) and the GI50 (OVCAR-8) was > 100 µM (inactive). For the same molecule, the GI50 (SF-539) was > 100 µM (inactive), the GI50 (NCI-H522) was > 100 µM (inactive) and the GI50 (SK-OV-3) was > 100 µM (inactive). For the same molecule, the GI50 (ACHN) was > 100 µM (inactive) and the GI50 (786-0) was > 100 µM (inactive).
For `CO[C@H]1/C=C/O[C@@]2(C)Oc3c(C)c(O)c4c(O)c(c(/C=N/N5CCN(C)CC5)c(O)c4c3C2=O)NC(=O)/C(C)=C\C=C\[C@H](C)[C@H](O)[C@@H](C)[C@@H](O)[C@@H](C)[C@H](OC(C)=O)[C@@H]1C` [RIFAMPIN], the GI50 (SN12C) was > 100 µM (inactive), the GI50 (EKVX) was > 100 µM (inactive) and the GI50 (SR) was 3.32 µM (inactive). The GI50 (A498) was > 100 µM (inactive), the GI50 (SW-620) was > 100 µM (inactive) and the GI50 (UO-31) was 68.4 µM (inactive). For the same molecule, the GI50 (TK-10) was > 100 µM (inactive), the GI50 (DU-145) was > 100 µM (inactive) and the GI50 (HOP-62) was > 100 µM (inactive). For the same molecule, the GI50 (SK-MEL-28) was > 100 µM (inactive), the GI50 (K562) was > 100 µM (inactive) and the GI50 (MDA-MB-435) was > 100 µM (inactive). For the same molecule, the GI50 (NCI-H460) was 45.8 µM (inactive), the GI50 (SK-MEL-2) was > 100 µM (inactive) and the GI50 (OVCAR-5) was > 100 µM (inactive). For the same molecule, the GI50 (M14) was 62.1 µM (inactive), the GI50 (HCT-116) was 97.7 µM (inactive) and the GI50 (MDA-N) was > 100 µM (inactive). The GI50 (RXF 393) was > 100 µM (inactive), the GI50 (CCRF-CEM) was 26.2 µM (inactive) and the GI50 (PC-3) was 81.5 µM (inactive). The GI50 (COLO 205) was 82.6 µM (inactive), the GI50 (MDA-MB-231) was 24.5 µM (inactive) and the GI50 (UACC-257) was 80.5 µM (inactive). For the same molecule, the GI50 (MOLT-4) was 68.7 µM (inactive), the GI50 (HCC 2998) was 72.6 µM (inactive) and the GI50 (UACC-62) was > 100 µM (inactive). For the same molecule, the GI50 (T47D) was > 100 µM (inactive), the GI50 (A549) was > 100 µM (inactive) and the GI50 (NCI/ADR-RES) was > 100 µM (inactive). For the same molecule, the GI50 (BT-549) was 62.8 µM (inactive), the GI50 (CAKI-1) was > 100 µM (inactive) and the GI50 (OVCAR-3) was 24.8 µM (inactive). For the same molecule, the GI50 (KM12) was > 100 µM (inactive), the GI50 (Malme-3M) was 37.5 µM (inactive) and the GI50 (MCF7) was > 100 µM (inactive). For the same molecule, the GI50 (SK-MEL-5) was 61.4 µM (inactive), the GI50 (RPMI-8226) was 52.1 µM (inactive) and the GI50 (IGROV-1) was 73.6 µM (inactive). The GI50 (OVCAR-8) was > 100 µM (inactive), the GI50 (SK-OV-3) was > 100 µM (inactive) and the GI50 (ACHN) was > 100 µM (inactive). For the same molecule, the GI50 (HT-29) was 60 µM (inactive) and the GI50 (786-0) was > 100 µM (inactive).
